Results as given in patent publication US20240350478A1, “APPLICATION OF BENZISOQUINOLINE DIKETONE COMPOUND IN TREATMENT OF TUMOR” (NANJING SHIJIANG MEDICINE TECHNOLOGY CO., LTD, priority 2021, published 2024).
pIC50: −log10 of the molar value. Counter-ions that a name gives are not always drawn.

Experiments:
Type in all cases: cell-based
[1] = tested on: NCI-H82 (human small cell lung cancer cell); test: CellTiter-Glo cell viability, NCI-H82; settings: sensitive group, 3-4 days of culture, n=3
Experimental: (§1) The inhibitory effect of pixantrone maleate on various tumor cell lines was detected using cell activity detection reagent. • Cell viability was detected using the Promega CellTiter-Glo kit, cell viability was determined by directly measuring intracellular ATP content. In the experiment, the IC50 value of pixantrone maleate on various tumor cell lines was determined. Each tumor cell was cultured separately in relevant medium (+p/s), and was incubated for 3 h, then the gradient diluted pixantrone maleate was added. After 3-4 days of culture, the relevant IC50 (50% inhibiting concentration) was measured (n=3). The name, source and culture conditions of each tumor cell line were as follows: Cell line NCI-H82 (ATCC, No. HTB-175) was cultured in 10% fetal bovine serum-containing RPMI1640 medium (+P/S).

[2] = tested on: G-401 (human renal carcinoma Wilms cell); test: CellTiter-Glo cell viability, G-401; settings: sensitive group, 3-4 days of culture, n=3
Experimental: as §1, with “G-401” for “NCI-H82”, “CRL-1441)” for “HTB-175)”, “McCoy's 5a” for “RPMI1640”

[3] = tested on: MDA-MB-453 (breast cancer cell); test: CellTiter-Glo cell viability, MDA-MB-453; settings: Homo sapiens, sensitive group, 3-4 days of culture, n=3
Experimental: as §1, with “MDA-MB-453” for “NCI-H82”, “HTB-131)” for “HTB-175)”, “Leibovitz's L-15” for “RPMI1640”

[4] = tested on: SW48 (human colon adenocarcinoma cell); test: CellTiter-Glo cell viability, SW48; settings: sensitive group, 3-4 days of culture, n=3
Experimental: as §1, with “SW48” for “NCI-H82”, “CCL-231)” for “HTB-175)”, “Leibovitz's L-15” for “RPMI1640”

[5] = tested on: WSU-DLCL2 (human diffuse large B-cell lymphoma); test: CellTiter-Glo cell viability, WSU-DLCL2; settings: WSUDLCL2, sensitive group, 3-4 days of culture, n=3
Experimental: as §1, with “WSU-DLCL2 (DSMZ,” for “NCI-H82 (ATCC,”, “ACC-575)” for “HTB-175)”

[6] = tested on: CFPAC-1 (human pancreatic cancer cell); test: CellTiter-Glo cell viability, CFPAC-1; settings: insensitive group, 3-4 days of culture, n=3
Experimental: as §1, with “CFPAC-1” for “NCI-H82”, “CRL-1918)” for “HTB-175)”, “IMDM” for “RPMI1640”

[7] = tested on: 786-O (clear cell renal cell adenocarcinoma cell); test: CellTiter-Glo cell viability, 786-O; settings: Homo sapiens, 786-0, insensitive group, 3-4 days of culture, n=3
Experimental: as §1, with “786-0” for “NCI-H82”, “CRL-1932)” for “HTB-175)”

[8] = tested on: GB-1 (human glioblastoma cell); test: CellTiter-Glo cell viability, GB-1; settings: insensitive group, 3-4 days of culture, n=3
Experimental: as §1, with “GB-1 (JCRB,” for “NCI-H82 (ATCC,”, “IFO50489)” for “HTB-175)”, “DMEM” for “RPMI1640”

[9] = tested on: SF-126 (human glioblastoma multiforme cell); test: CellTiter-Glo cell viability, SF-126; settings: insensitive group, 3-4 days of culture, n=3
Experimental: as §1, with “SF126 (JCRB,” for “NCI-H82 (ATCC,”, “IFO50286)” for “HTB-175)”, “EMEM” for “RPMI1640”

[10] = tested on: NCI-H82 (Con) cell; test: CellTiter-Glo cell viability, control NCI-H82 (Con) cell; settings: Homo sapiens; control NCI-H82 cell transfected with empty virus vector; n=3
Text: (§2) The NNMT protein-overexpressing NCI-H82 cell (NCI-H82 (ov-NNMT)) was obtained by inserting the NNMT gene into NCI-H82 cell using a viral vector. The control NCI-H82 cell (NCI-H82 (Con)) was obtained by transfecting NCI-H82 cell with empty virus vector without carrying NNMT gene. The expressing level of NNMT protein in control NCI-H82 cell (NCI-H82 (Con)) and NNMT protein-overexpressing NCI-H82 cell (NCI-H82 (ov-NNMT)) was detected using Western Blot assay (as shown in FIG. 7), it could be seen from FIG. 7 that the NNMT protein in NCI-H82 (ov-NNMT) cell was overexpressed compared with the expression level of NNMT protein in NCI-H82(Con) cell. The IC50 value of pixantrone maleate on control NCI-H82 cell (NCI-H82 (Con)) and NNMT protein-overexpressing NCI-H82 cell (NCI-H82 (ov-NNMT)) was determined using Promega CellTiter-Glo kit which detected cell viability by directly measuring intracellular ATP content (n=3), the experiment result was shown in Table 4 below: […]

[11] = tested on: NCI-H82 (ov-NNMT) cell; test: CellTiter-Glo cell viability, NNMT protein-overexpressing NCI-H82 (ov-NNMT) cell; settings: Homo sapiens, n=3
Text: as §2

pIC50 [1]: 6.13
pIC50 [2]: 6.54
pIC50 [3]: 6.07
pIC50 [4]: 7.70
pIC50 [5]: 7.70
pIC50 [6]: 4.93
pIC50 [7]: 4.67
pIC50 [8]: 5.18
pIC50 [9]: 5.27
pIC50 [10]: 6.16
pIC50 [11]: 5.71
Structure (SMILES): NCCNc1ccc(NCCN)c2c1C(=O)c1ccncc1C2=O [Pixantrone maleate, pixantrone maleate]
